The source of these data is patent US12110295B2, “WD40 repeat domain protein 5 (WDR5) degradation/disruption compounds and methods of use” (Icahn School of Medicine at Mount Sinai, priority 2018, dated 2024).

This assay concerns the target WDR5 (Homo sapiens, UniProt P61964). Description: Screening of putative WDR5 degraders by Western blot in MV4;11 and/or MIAPACA2 cells. It counts as cell-based. Also on record: After WDR5 degrader treatment, cells were collected and lysed; endogenous in cells; host or cells: MV4;11 and/or MIAPACA2. As to conditions: summary of screening, FIGS. 6-10. The procedure:
MV4;11 cells were treated with DMSO or indicated compounds at 0.1 μM and 0.5 μM for 18 hours. […]. MIAPACA2 cells were treated with DMSO or indicated compounds at 0.5 μM and 1.0 μM for 18 hours.
MIAPACA2 cells were treated with DMSO or indicated compounds at 0.1 μM and 0.5 μM for 18 hours.
MIAPACA2 cells were treated with DMSO or indicated compounds at 0.5 μM and 1.0 μM or at 1.0 μM and 10 μM for 18 hours.
MV4;11 cells were treated with DMSO or indicated compounds at 0.1 μM and 1.0 μM for 18 hours.
WDR5 degraders were dissolved in DMSO and DMSO with no degraders was used as the control. 1×10^6 MV4;11 cells or 1×10^5 MIAPACA2 or 2×10^5 Hela cells were seeded in 2 mL medium for each well in […].
For prescreening of all the compounds, each test compound was added to the medium at indicated concentrations. After 18 h treatment, cells were collected.
After WDR5 degrader treatment, cells were collected and lysed. Total cell lysates were used for western blot. The following primary antibodies were used: WDR5 (Santa Cruz), vinculin (Cell Signaling Technology), tubulin (Cell Signaling Technology), GAPDH (Santa Cruz). Blots were imaged using fluorescence-labeled secondary antibodies on ChemiDoc™ Imaging Systems.
(In general: A western blot detects proteins with antibodies after separation by electrophoresis.)
As for `Cc1ncsc1-c1ccc(CNC(=O)[C@@H]2C[C@@H](O)CN2C(=O)[C@@H](NC(=O)COCC(=O)N2CCN(c3ncc(-c4cc(NC(=O)c5ccc(F)cc5C(F)(F)F)c(N5C[C@@H](C)N(C)[C@@H](C)C5)cc4F)cn3)CC2)C(C)(C)C)cc1` [XF078-99, (2S,4R)-1-((S)-2-(2-(2-(4-(5-(2-fluoro-5-(4-fluoro-2-(trifluoromethyl)benzamido)-4-((3S,5R)-3,4,5-trimethylpiperazin-1-yl)phenyl)pyrimidin-2-yl)piperazin-1-yl)-2-oxoethoxy)acetamido)-3,3-dimethylbutanoyl)-4-hydroxy-N-(4-(4-methylthiazol-5-yl)benzyl)pyrrolidine-2-carboxamide], the “effective degradation of WDR5 in MV4;11 and/or MIAPACA2 cells” value (shortened to “effective degradation of WDR5”) is “able to effectively degrade WDR5”.

With `Cc1ncsc1-c1ccc(CNC(=O)[C@@H]2C[C@@H](O)CN2C(=O)[C@@H](NC(=O)COCCOCCOCCOCCOCC(=O)NCCN2CCN(Cc3ccc(F)c(-c4ccc(N5C[C@@H](C)N(C)[C@@H](C)C5)c(NC(=O)c5c[nH]c(=O)cc5C(F)(F)F)c4)c3)CC2)C(C)(C)C)cc1` [XF078-8, N^1-(2-(4-((6-fluoro-3′-(6-oxo-4-(trifluoromethyl)-1,6-dihydropyridine-3-carboxamido)-4′-((3S,5R)-3,4,5-trimethylpiperazin-1-yl)-[1,1′-biphenyl]-3-yl)methyl)piperazin-1-yl)ethyl)-N^17-((S)-1-((2S,4R)-4-hydroxy-2-((4-(4-methylthiazol-5-yl)benzyl)carbamoyl)pyrrolidin-1-yl)-3,3-dimethyl-1-oxobutan-2-yl)-3,6,9,12,15-pentaoxaheptadecanediamide], the “effective degradation of WDR5” value was “able to effectively degrade WDR5”.

On to `Cc1ncsc1-c1ccc(CNC(=O)[C@@H]2C[C@@H](O)CN2C(=O)[C@@H](NC(=O)CCCCCCC(=O)N2CCN(c3ncc(-c4cc(NC(=O)c5ccc(F)cc5C(F)(F)F)c(N5C[C@@H](C)N(C)[C@@H](C)C5)cc4F)cn3)CC2)C(C)(C)C)cc1` [XF078-112, (2S,4R)-1-((S)-2-(8-(4-(5-(2-fluoro-5-(4-fluoro-2-(trifluoromethyl)benzamido)-4-((3S,5R)-3,4,5-trimethylpiperazin-1-yl)phenyl)pyrimidin-2-yl)piperazin-1-yl)-8-oxooctanamido)-3,3-dimethylbutanoyl)-4-hydroxy-N-(4-(4-methylthiazol-5-yl)benzyl)pyrrolidine-2-carboxamide], for which the “effective degradation of WDR5” value is “able to effectively degrade WDR5”.

In the case of `C[C@@H]1CN(c2ccc(-c3cc(CN4CCN(CCNC(=O)CCOCCOCCOCCNc5cccc6c5C(=O)N(C5CCC(=O)NC5=O)C6=O)CC4)ccc3F)cc2NC(=O)c2c[nH]c(=O)cc2C(F)(F)F)C[C@H](C)N1C` (stereo partly drawn) [XF078-27, N-(5′-((4-(1-((2-(2,6-dioxopiperidin-3-yl)-1,3-dioxoisoindolin-4-yl)amino)-12-oxo-3,6,9-trioxa-13-azapentadecan-15-yl)piperazin-1-yl)methyl)-2′-fluoro-4-((3S,5R)-3,4,5-trimethylpiperazin-1-yl)-[1,1′-biphenyl]-3-yl)-6-oxo-4-(trifluoromethyl)-1,6-dihydropyridine-3-carboxamide], the “effective degradation of WDR5” value is given as “able to effectively degrade WDR5”.

For `Cc1ncsc1-c1ccc(CNC(=O)[C@@H]2C[C@@H](O)CN2C(=O)[C@@H](NC(=O)COCCNC(=O)CCC(=O)N2CCN(c3ncc(-c4cc(NC(=O)c5c[nH]c(=O)cc5C(F)(F)F)c(N5C[C@@H](C)N(C)[C@@H](C)C5)cc4F)cn3)CC2)C(C)(C)C)cc1` [XF078-61, N-(4-fluoro-5-(2-(4-(4-((2-(2-(((S)-1-((2S,4R)-4-hydroxy-2-((4-(4-methylthiazol-5-yl)benzyl)carbamoyl)pyrrolidin-1-yl)-3,3-dimethyl-1-oxobutan-2-yl)amino)-2-oxoethoxy)ethyl)amino)-4-oxobutanoyl)piperazin-1-yl)pyrimidin-5-yl)-2-((3S,5R)-3,4,5-trimethylpiperazin-1-yl)phenyl)-6-oxo-4-(trifluoromethyl)-1,6-dihydropyridine-3-carboxamide], the “effective degradation of WDR5” value was “able to effectively degrade WDR5”.

Take `Cc1ncsc1-c1ccc(CNC(=O)[C@@H]2C[C@@H](O)CN2C(=O)[C@@H](NC(=O)COCC(=O)N2CC=C(c3cc(NC(=O)c4c[nH]c(=O)cc4C(F)(F)F)c(N4C[C@@H](C)N(C)[C@@H](C)C4)cc3F)CC2)C(C)(C)C)cc1` [XF078-30, N-(4-fluoro-5-(1-(2-(2-(((S)-1-((2S,4R)-4-hydroxy-2-((4-(4-methylthiazol-5-yl)benzyl)carbamoyl)pyrrolidin-1-yl)-3,3-dimethyl-1-oxobutan-2-yl)amino)-2-oxoethoxy)acetyl)-1,2,3,6-tetrahydropyridin-4-yl)-2-((3S,5R)-3,4,5-trimethylpiperazin-1-yl)phenyl)-6-oxo-4-(trifluoromethyl)-1,6-dihydropyridine-3-carboxamide]: the “effective degradation of WDR5” value is “able to effectively degrade WDR5”.

Take `Cc1ncsc1-c1ccc(CNC(=O)[C@@H]2C[C@@H](O)CN2C(=O)[C@@H](NC(=O)CCCCCC(=O)NCCN2CCN(Cc3ccc(F)c(-c4ccc(N5C[C@@H](C)N(C)[C@@H](C)C5)c(NC(=O)c5c[nH]c(=O)cc5C(F)(F)F)c4)c3)CC2)C(C)(C)C)cc1` [XF078-13, N^1-(2-(4-((6-fluoro-3′-(6-oxo-4-(trifluoromethyl)-1,6-dihydropyridine-3-carboxamido)-4′-((3S,5R)-3,4,5-trimethylpiperazin-1-yl)-[1,1′-biphenyl]-3-yl)methyl)piperazin-1-yl)ethyl)-N^7-((S)-1-((2S,4R)-4-hydroxy-2-((4-(4-methylthiazol-5-yl)benzyl)carbamoyl)pyrrolidin-1-yl)-3,3-dimethyl-1-oxobutan-2-yl)heptanediamide]: the “effective degradation of WDR5” value is “able to effectively degrade WDR5”.

Regarding `CN1CCN(c2ccc(-c3cccc(CN4CCN(CCNC(=O)CCCCCCCOc5cccc6c5C(=O)N(C5CCC(=O)NC5=O)C6=O)CC4)c3)cc2NC(=O)c2c[nH]c(=O)cc2C(F)(F)F)CC1` (stereo not drawn) [XF056-39, N-(3′-((4-(2-(8-((2-(2,6-dioxopiperidin-3-yl)-1,3-dioxoisoindolin-4-yl)oxy)octanamido)ethyl)piperazin-1-yl)methyl)-4-(4-methylpiperazin-1-yl)-[1,1′-biphenyl]-3-yl)-6-oxo-4-(trifluoromethyl)-1,6-dihydropyridine-3-carboxamide], the “effective degradation of WDR5” value is “able to effectively degrade WDR5”.

For `Cc1ncsc1-c1ccc(CNC(=O)[C@@H]2C[C@@H](O)CN2C(=O)[C@@H](NC(=O)CCCCCCCC(=O)NCCN2CCN(Cc3ccc(F)c(-c4ccc(N5C[C@@H](C)N(C)[C@@H](C)C5)c(NC(=O)c5c[nH]c(=O)cc5C(F)(F)F)c4)c3)CC2)C(C)(C)C)cc1` [XF078-15, N^1-(2-(4-((6-fluoro-3′-(6-oxo-4-(trifluoromethyl)-1,6-dihydropyridine-3-carboxamido)-4′-((3S,5R)-3,4,5-trimethylpiperazin-1-yl)-[1,1′-biphenyl]-3-yl)methyl)piperazin-1-yl)ethyl)-N^9-((S)-1-((2S,4R)-4-hydroxy-2-((4-(4-methylthiazol-5-yl)benzyl)carbamoyl)pyrrolidin-1-yl)-3,3-dimethyl-1-oxobutan-2-yl)nonanediamide], the “effective degradation of WDR5” value was “able to effectively degrade WDR5”.
